Assays:
HDAC8 = target: T1, HDAC8 (Homo sapiens, UniProt Q9BY41); assay: Caliper assay, biochemical HDAC IC50; conditions: relative to PCI-34051
T1 construct: purchased BPS Bioscience
T1 sequence (Q9BY41 1-377): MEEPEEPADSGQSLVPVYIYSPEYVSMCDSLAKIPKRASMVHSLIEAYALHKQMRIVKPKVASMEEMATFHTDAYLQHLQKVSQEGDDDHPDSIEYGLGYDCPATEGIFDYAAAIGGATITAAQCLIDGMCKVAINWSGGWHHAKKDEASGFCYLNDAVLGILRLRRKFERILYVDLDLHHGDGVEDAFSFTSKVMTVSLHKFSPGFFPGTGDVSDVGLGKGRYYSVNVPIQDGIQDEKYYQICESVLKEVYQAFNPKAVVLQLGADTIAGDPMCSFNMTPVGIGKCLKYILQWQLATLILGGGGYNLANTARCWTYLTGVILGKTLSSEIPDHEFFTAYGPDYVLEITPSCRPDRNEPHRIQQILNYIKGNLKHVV
Description: The biochemical determination of HDAC ICsos for compounds was performed as described previously (Zhang, Y.-L. et al., Fluorescent substrates for determining lysine modifying enzyme activity, 2013, Patent Application WO 2013067391). All HDACs were purchased from BPS Bioscience. The substrates Broad Substrate A and Broad Substrate B were synthesized in house, but can be purchased from PerkinElmer (Product number CLS960006 and CLS960007, respectively). All other reagents were purchased from Sigma. Caliper EZ reader II system was used to collect all data. Compounds were tested in duplicate in a 12-point dose curve with 3-fold serial dilution starting from 33.33 μM. Purified HDACs were incubated with 2 μM carboxyfluorescein (FAM)-labeled acetylated or trifluoroacetylated peptide substrate (Broad Substrate A and B, respectively) and test compound for 60 min at room temperature, in an HDAC assay buffer that contained 50 mM HEPES (pH 7.4), 100 mM KCl, 0.01% BSA and 0.001% Tween-20. […] Substrate and product were separated electrophoretically and fluorescence intensity in the substrate and product peaks was determined and analyzed by Labchip EZ Reader. […] Inhibition of HDAC10 and 11 was not measured due to either low purity of the available recombinant HDAC enzyme preparations and/or lack of activity of the enzymes and low substrate conversion.

MCF7 cells [1] = assay: L1000 gene expression profiling; type: cell-based, human; conditions: for number of dose-responsive genes with altered expression: approximately 1,000 landmark genes
Description: Cells were incubated for 24 hours at 37° C. in a humidified incubator containing 5% CO2 before treatment.
These 1,000× stock solutions were first diluted (100-fold) in culture medium, and then the diluted compounds were transferred to the cell culture plates using CyBi-well vario 384-well tips (another 10-fold dilution). Ultimately, all compounds were diluted 1,000-fold to their desired serial concentrations with a final DMSO concentration of 0.1%. Treated cells were incubated for 24 hours prior to lysis. […] Cell lysate plates were sealed using a plate sealer, kept at room temperature for 30 minutes, and then frozen at −80° C. until L1000 gene expression profiling was performed.
In this study, we utilize L1000, a high-throughput, bead-based gene expression assay in which mRNA is extracted from cultured human cells treated with various chemical or genomic perturbagens (small molecules, gene knockdowns, or gene over-expression constructs) as previously described.^38 This mRNA is reverse-transcribed into first-strand cDNA. Gene specific probes containing barcodes and universal primer sites are annealed to the first strand cDNA. The probes are ligated to form a template for PCR. The template is PCR amplified with biotinylated-universal primers. The end products are biotinylated, fixed length, barcoded amplicons. The amplicons can then be mixed with Luminex beads that contain complementary barcodes to those encoded in each of the 1000 amplified landmark genes. These 1000 landmark genes were chosen as a reduced representation of the transcriptome and account for the majority of expression variation across many cellular contexts (Subramanian, et al., manuscript in preparation). These beads are then stained with fluorescent streptavidin-phycoerythrin (SAPE) and detected in 384-well plate format on a Luminex FlexMap flow cytometry-based scanner. The resulting readout is a measure of mean fluorescent intensity (MFI) for each landmark gene.

[2] = tested on: p21 (CDKN1A) overexpression; assay: Connectivity map query analysis of L1000 signatures across cell lines; type: cell-based, human; conditions: across multiple cell lines, relative to 430 overexpressed genes
Description: To assess whether our findings extend beyond the context of a single cell type and to incorporate into our analysis orthogonal biological perturbations, we expanded our gene expression studies using L1000 into several cell lines representative of distinct tissue types: PC3 (prostate), HEPG2 (liver), HCC515 (lung), HAlE (kidney), A375 (skin), A549 (lung), HT29 (colon). […] These candidate substrates of HDAC8 may provide a more targeted approach toward specific cancers (or other diseases) driven by the dysregulation of proteins and/or genes within this HDAC8 network. […] Efforts toward defining the functional consequences of the change in acetylation of these proteins by HDAC8 are ongoing.
The raw expression data are log 2-scaled, quantile normalized, and z-scored, such that a differential expression value is achieved for each gene in each well. In the standard L1000 protocol, each well corresponds to a different perturbagen and these differential expression values are collapsed across replicate wells to yield a differential expression signature for each perturbagen. […] To assess this, we did a meta-analysis of the CMap query results (i.e., lists of perturbations ordered by similarity to an input gene expression signature). […] We performed the same analysis with BRD3811 as well. […]

MCF7 cells [3] = assay: SILAC-based global acetylation profiling; type: cell-based; conditions: compared to DMSO or BRD3811
Description: Using these chemical tools, we compared the changes in global acetylation in a representative cell line known to express HDAC8 (i.e. MCF7) after treatment with each compound using Stable Isotope Labeling of Amino Acids in Cell Culture (SILAC)-based quantitative mass spectrometry (MS). (Ververis, K., Karagiannis, T. C. (2012) An atlas of histone deacetylase expression in breast cancer: fluorescence methodology for comparative semi-quantitative analysis. Am. J. Transl. Res. 4, 24-43). […] Global acetylation profiling was completed by digesting cellular proteins with trypsin and enriching the acetylated peptides by immunoprecipitation using an antibody specific for acetylated lysine residues.
MCF7 cells were grown and expanded from the same frozen vial stock, followed by differentially labeling with non-radioactive stable isotopic amino acids by growing in light, medium, and heavy SILAC media (see below for recipe), respectively (Ong, S. E., et al. Mol. Cell Proteomics 5, 376-386 (2002)). […]
EDTA, 2 μg/ml aprotinin (Sigma-Aldrich), 10 μg/ml leupeptin (Roche Applied Science), 1 mM phenylmethylsulfonyl fluoride (PMSF), and 5 mM sodium butyrate (Sigma-Aldrich). […] Protein concentrations were measured using a bicinchoninic acid (BCA) protein assay. […]

p21 = assay: Western blotting of p21 protein; type: cell-based; conditions: MCF7 cells, 10 μM, 48 h
Description: MCF7 cells were treated with compounds for 48 h, at which time, lysates were collected using RIPA buffer with added protease (Roche) and phosphatase (Roche) inhibitors. Electrophoresis was performed using NuPage 4-12% Bis-Tris gels (Invitrogen). Proteins were transferred to a nitrocellulose membrane and probed using antibodies for p21 (Cell Signaling) and GAPDH (Cell Signalling). Chemiluminescence was induced by subsequent incubation with HRP-linked secondary antibodies (GE Healthcare UK Ltd.) and treatment of the membrane with the appropriate ECL solutions (Thermo Scientific). Visualization was accomplished using a ChemiDoc MP System (Bio-Rad), and the raw data files were converted to jpegs using ImageJ (NIH).

MCF-7 cells = assay: Global histone modification profiling; type: cell-based; conditions: 10 μM for 24 h
Description: Each row represents a unique combination of histone modifications (as denoted by “Histone Mark”) and each column represents a treatment of MCF-7 cells with the compound indicated at 10 μM for 24 h. Each compound treatment was performed in biological duplicate (R1 and R2). Each cell is colored by the log2-fold change over the average of the DMSO replicates as denoted in the scale bar. Global histone profiles were obtained in a manner essentially equivalent to a previous report. (Kim, J. H., Yu, S., Chen, J. D., Kong, A. N. (2013) The nuclear cofactor RAC3/AIB1/SRC-3 enhances Nrf2 signaling by interacting with transactivation domains. Oncogene 32, 514-527).

Row | Compound | reduction in potency for inhibition of HDAC8 (HDAC8) | fold_change_at_10_uM CDKN1A (202284_s_at) (MCF7 cells [1]; MCF7, 10 uM, 24 h) | fold_change_at_10_uM CSNK1A1 (206562_s_at) (MCF7 cells [1]; MCF7, 10 uM, 24 h) | fold_change_at_10_uM DUSP3 (201536_at) (MCF7 cells [1]; MCF7, 10 uM, 24 h) | fold_change_at_10_uM ERBB2 (216836_s_at) (MCF7 cells [1]; MCF7, 10 uM, 24 h) | fold_change_at_10_uM GHR (205498_at) (MCF7 cells [1]; MCF7, 10 uM, 24 h) | fold_change_at_10_uM HMGA2 (208025_s_at) (MCF7 cells [1]; MCF7, 10 uM, 24 h) | fold_change_at_10_uM HMOX1 (203665_at) (MCF7 cells [1]; MCF7, 10 uM, 24 h) | fold_change_at_10_uM PRSS23 (202458_at) (MCF7 cells [1]; MCF7, 10 uM, 24 h) | fold_change_at_10_uM SLC25A46 (212833_at) (MCF7 cells [1]; MCF7, 10 uM, 24 h) | fold_change_at_10_uM TXNRD1 (201266_at) (MCF7 cells [1]; MCF7, 10 uM, 24 h) | fold_change_at_10_uM VAT1 (208626_s_at) (MCF7 cells [1]; MCF7, 10 uM, 24 h) | level of the p21 transcript (MCF7 cells [1]; dose range 0.04 μM-10 μM, 24 h) | number of dose-responsive genes with altered expression (MCF7 cells [1]; dose range 0.04 M-10 M) [genes] | average percentile rank of similarity to p21 (CDKN1A) overexpression signature [2] [percentile] | changes in histone acetylation status (MCF7 cells [3]) | number of dose-responsive genes with altered expression (MCF7 cells [1]; dose range 0.04 μM-10 μM) [genes] | p21 protein levels (western blot) (p21) | histone acetylation (MCF-7 cells)
1 | COc1ccc(Cn2ccc3cc(C)c(C(=O)NO)cc32)cc1 [BRD3811] | 1,000 fold | 1.956 | 1.623 | 1.586 | 1.614 | 0.7287 | 0.6073 | 2.067 | 0.6507 | 0.5635 | 1.298 | 1.389 | increased the level of p21 transcript only at the highest dose tested | 11 | 66 |  |  |  | 
2 | COc1ccc(Cn2ccc3ccc(C(=O)NO)cc32)cc1 [PCI-34051, reference compound] |  |  |  |  |  |  |  |  |  |  |  |  | dose-dependent increase |  | 96 | did not observe any significant changes | 70 | increased p21 | not altered

Source: patent publication US9745613B2, “Compounds, substrates and methods related to histone deacetylases” (The Broad Institute, Inc., priority 2014, dated 2017)
